Data taken from PubChem BioAssay AID1259407 (Chemical Carcinogenesis Research Information System (CCRIS), 2018).
The source made the active and inactive calls. No rule for the calls is given here.

System: CCRIS mutagenicity, Ames/micronucleus/aberration tests
Assay: CCRIS mutagenicity studies
[1] = Test System: AMES SALMONELLA TYPHIMURIUM, Strain/Indicator: TA98, Metabolic Activation: NONE, Method: STANDARD PLATE
[2] = Test System: AMES SALMONELLA TYPHIMURIUM, Strain/Indicator: TA100, Metabolic Activation: NONE, Method: STANDARD PLATE
[3] = Test System: AMES SALMONELLA TYPHIMURIUM, Strain/Indicator: TA100, Metabolic Activation: RAT, LIVER, S-9, AROCLOR 1254, Method: STANDARD PLATE
[4] = Test System: AMES SALMONELLA TYPHIMURIUM, Strain/Indicator: TA1535, Metabolic Activation: NONE, Method: STANDARD PLATE
[5] = Test System: AMES SALMONELLA TYPHIMURIUM, Strain/Indicator: TA1537, Metabolic Activation: NONE, Method: STANDARD PLATE
[6] = Test System: AMES SALMONELLA TYPHIMURIUM, Strain/Indicator: TA1538, Metabolic Activation: NONE, Method: STANDARD PLATE
[7] = Test System: AMES SALMONELLA TYPHIMURIUM, Strain/Indicator: TA1538, Metabolic Activation: RAT, LIVER, S-9, AROCLOR 1254, Method: STANDARD PLATE

With O=c1oc2cc(O)ccc2c2oc3cc(O)ccc3c12 as the molecule, how does the mutagenic call (End Point: IN VITRO CHROMOSOMAL ABERRATIONS, Test System: HUMAN PERIPHERAL LYMPHOCYTES, Metabolic Activation: NONE) read?
Its mutagenic call is “active; positive (structural changes)”.

What about the mutagenic call (Test System: AMES SALMONELLA TYPHIMURIUM, Strain/Indicator: TA98, Metabolic Activation: HAMSTER, LIVER, S-9, AROCLOR 1254, Method: STANDARD PLATE) of the same molecule?
The mutagenic call was “inactive; negative”.

And the mutagenic call [1]?
The mutagenic call was “inactive; negative”.

What about the mutagenic call (Test System: AMES SALMONELLA TYPHIMURIUM, Strain/Indicator: TA98, Metabolic Activation: RAT, LIVER, S-9, AROCLOR 1254, Method: STANDARD PLATE) of the same molecule?
Its mutagenic call is “inactive; negative”.

And the mutagenic call (Test System: AMES SALMONELLA TYPHIMURIUM, Strain/Indicator: TA100, Metabolic Activation: HAMSTER, LIVER, S-9, AROCLOR 1254, Method: STANDARD PLATE)?
The mutagenic call was “inactive; negative”.

And the mutagenic call [2]?
The mutagenic call was “inactive; negative”.

And the mutagenic call [3]?
The mutagenic call was “inactive; negative”.

And the mutagenic call (Test System: AMES SALMONELLA TYPHIMURIUM, Strain/Indicator: TA1535, Metabolic Activation: HAMSTER, LIVER, S-9, AROCLOR 1254, Method: STANDARD PLATE)?
The mutagenic call was “inactive; negative”.

And the mutagenic call [4]?
Its mutagenic call is “inactive; negative”.

What about the mutagenic call (Test System: AMES SALMONELLA TYPHIMURIUM, Strain/Indicator: TA1535, Metabolic Activation: RAT, LIVER, S-9, AROCLOR 1254, Method: STANDARD PLATE) of the same molecule?
The mutagenic call was “inactive; negative”.

And the mutagenic call (Test System: AMES SALMONELLA TYPHIMURIUM, Strain/Indicator: TA1537, Metabolic Activation: HAMSTER, LIVER, S-9, AROCLOR 1254, Method: STANDARD PLATE)?
Its mutagenic call is “inactive; negative”.

What about the mutagenic call [5] of the same molecule?
Its mutagenic call is “inactive; negative”.

And the mutagenic call (Test System: AMES SALMONELLA TYPHIMURIUM, Strain/Indicator: TA1537, Metabolic Activation: RAT, LIVER, S-9, AROCLOR 1254, Method: STANDARD PLATE)?
Its mutagenic call is “inactive; negative”.

What about the mutagenic call (Test System: AMES SALMONELLA TYPHIMURIUM, Strain/Indicator: TA1538, Metabolic Activation: HAMSTER, LIVER, S-9, AROCLOR 1254, Method: STANDARD PLATE) of the same molecule?
Its mutagenic call is “inactive; negative”.

And the mutagenic call [6]?
The mutagenic call was “inactive; negative”.

What about the mutagenic call [7] of the same molecule?
The mutagenic call was “inactive; negative”.

And the mutagenic call (Test System: Ames Salmonella typhimurium, Strain/Indicator: TA102, Metabolic Activation: None, Method: Preincubation)?
Its mutagenic call is “inactive; negative”.

What about the mutagenic call (Test System: Ames Salmonella typhimurium, Strain/Indicator: TA102, Metabolic Activation: Rat, Liver, S-9, Aroclor 1254 in 0.154 M KCl, Method: Preincubation) of the same molecule?
The mutagenic call was “inactive; negative”.

And the mutagenic call (Test System: CHINESE HAMSTER LUNG CELLS, Strain/Indicator: V-79 (HPRT)/6-THIOGUANINE, Metabolic Activation: NONE)?
Its mutagenic call is “active; positive”.

What about the mutagenic call (Test System: HUMAN LYMPHOBLASTOID CELLS, Strain/Indicator: AHH-1 CELLS(TK+/TK-), Metabolic Activation: NONE, Method: SUSPENSION/PLATE) of the same molecule?
Its mutagenic call is “active; positive”.

And the mutagenic call (Test System: SYRIAN HAMSTER EMBRYO CELLS, Strain/Indicator: HPRT/6-THIOGUANINE, Metabolic Activation: NONE, Method: PLATE)?
The mutagenic call was “active; positive”.

For Cc1cccc2c1ccc1cc(C(C)C)ccc12, which mutagenic call [2] is on record?
Its mutagenic call is “inactive; negative”.

What about the mutagenic call [3] of the same molecule?
The mutagenic call was “inactive; negative”.

For Nc1cc2ccc3cccc4ccc(c1)c2c34, which mutagenic call (Test System: AMES SALMONELLA TYPHIMURIUM, Strain/Indicator: TA98, Metabolic Activation: RAT, LIVER, S-9, AROCLOR 1254 (2 OR 4%), Method: STANDARD PLATE) is on record?
Its mutagenic call is “active; positive”.

What about the mutagenic call (Test System: AMES SALMONELLA TYPHIMURIUM, Strain/Indicator: TA100, Metabolic Activation: RAT, LIVER, S-9, AROCLOR 1254 (2%), Method: STANDARD PLATE) of the same molecule?
The mutagenic call was “active; positive”.

What about the mutagenic call (Test System: AMES SALMONELLA TYPHIMURIUM, Strain/Indicator: TA1535, Metabolic Activation: RAT, LIVER, S-9, AROCLOR 1254 (2%), Method: STANDARD PLATE) of the same molecule?
The mutagenic call was “inactive; negative”.

What about the mutagenic call (Test System: AMES SALMONELLA TYPHIMURIUM, Strain/Indicator: TA1537, Metabolic Activation: RAT, LIVER, S-9, AROCLOR 1254 (2%), Method: STANDARD PLATE) of the same molecule?
The mutagenic call was “active; positive”.

What does the source list for O=c1ccc2cc3c4c(c2o1)CCCN4CCC3?
mutagenic call [6]: inactive; negative; mutagenic call [7]: active; positive

Cc1ccc(N=NN(C)C)cc1 was tested. Which mutagenic call (Test System: AMES SALMONELLA TYPHIMURIUM, Strain/Indicator: TA92, Metabolic Activation: MOUSE, LIVER, S-9, POLYCHLORINATED BIPHENYLS, Method: PREINCUBATION) did it give?
Its mutagenic call is “inactive; negative”.

And the mutagenic call (Test System: AMES SALMONELLA TYPHIMURIUM, Strain/Indicator: TA92, Metabolic Activation: MOUSE, LIVER, S-9, POLYCHLORINATED BIPHENYLS, Method: STANDARD PLATE)?
Its mutagenic call is “inactive; negative”.

What about the mutagenic call (Test System: AMES SALMONELLA TYPHIMURIUM, Strain/Indicator: TA92, Metabolic Activation: NONE, Method: STANDARD PLATE) of the same molecule?
The mutagenic call was “inactive; negative”.

And the mutagenic call (Test System: AMES SALMONELLA TYPHIMURIUM, Strain/Indicator: TA97, Metabolic Activation: MOUSE, LIVER, S-9, POLYCHLORINATED BIPHENYLS, Method: PREINCUBATION)?
The mutagenic call was “inactive; negative”.

What about the mutagenic call (Test System: AMES SALMONELLA TYPHIMURIUM, Strain/Indicator: TA97, Metabolic Activation: MOUSE, LIVER, S-9, POLYCHLORINATED BIPHENYLS, Method: STANDARD PLATE) of the same molecule?
Its mutagenic call is “inactive; negative”.

And the mutagenic call (Test System: AMES SALMONELLA TYPHIMURIUM, Strain/Indicator: TA97, Metabolic Activation: NONE, Method: STANDARD PLATE)?
Its mutagenic call is “active; positive”.

What about the mutagenic call (Test System: AMES SALMONELLA TYPHIMURIUM, Strain/Indicator: TA98, Metabolic Activation: MOUSE, LIVER, S-9, POLYCHLORINATED BIPHENYLS, Method: PREINCUBATION) of the same molecule?
Its mutagenic call is “inactive; negative”.

And the mutagenic call (Test System: AMES SALMONELLA TYPHIMURIUM, Strain/Indicator: TA98, Metabolic Activation: MOUSE, LIVER, S-9, POLYCHLORINATED BIPHENYLS, Method: STANDARD PLATE)?
The mutagenic call was “active; positive”.

And the mutagenic call [1]?
The mutagenic call was “active; positive”.

What about the mutagenic call (Test System: AMES SALMONELLA TYPHIMURIUM, Strain/Indicator: TA100, Metabolic Activation: MOUSE, LIVER, S-9, POLYCHLORINATED BIPHENYLS, Method: PREINCUBATION) of the same molecule?
Its mutagenic call is “inactive; negative”.

What about the mutagenic call (Test System: AMES SALMONELLA TYPHIMURIUM, Strain/Indicator: TA100, Metabolic Activation: MOUSE, LIVER, S-9, POLYCHLORINATED BIPHENYLS, Method: STANDARD PLATE) of the same molecule?
The mutagenic call was “inactive; negative”.

What about the mutagenic call [2] of the same molecule?
Its mutagenic call is “inactive; negative”.

What about the mutagenic call (Test System: AMES SALMONELLA TYPHIMURIUM, Strain/Indicator: TA1535, Metabolic Activation: MOUSE, LIVER, S-9, POLYCHLORINATED BIPHENYLS, Method: PREINCUBATION) of the same molecule?
Its mutagenic call is “inactive; negative”.

What about the mutagenic call (Test System: AMES SALMONELLA TYPHIMURIUM, Strain/Indicator: TA1535, Metabolic Activation: MOUSE, LIVER, S-9, POLYCHLORINATED BIPHENYLS, Method: STANDARD PLATE) of the same molecule?
The mutagenic call was “inactive; negative”.

What about the mutagenic call [4] of the same molecule?
Its mutagenic call is “inactive; negative”.

And the mutagenic call (Test System: AMES SALMONELLA TYPHIMURIUM, Strain/Indicator: TA1537, Metabolic Activation: MOUSE, LIVER, S-9, POLYCHLORINATED BIPHENYLS, Method: PREINCUBATION)?
Its mutagenic call is “active; positive”.

What about the mutagenic call (Test System: AMES SALMONELLA TYPHIMURIUM, Strain/Indicator: TA1537, Metabolic Activation: MOUSE, LIVER, S-9, POLYCHLORINATED BIPHENYLS, Method: STANDARD PLATE) of the same molecule?
Its mutagenic call is “active; positive”.

What about the mutagenic call [5] of the same molecule?
Its mutagenic call is “active; positive”.

And the mutagenic call (Test System: AMES SALMONELLA TYPHIMURIUM, Strain/Indicator: TA1538, Metabolic Activation: MOUSE, LIVER, S-9, POLYCHLORINATED BIPHENYLS, Method: PREINCUBATION)?
The mutagenic call was “active; positive”.

And the mutagenic call (Test System: AMES SALMONELLA TYPHIMURIUM, Strain/Indicator: TA1538, Metabolic Activation: MOUSE, LIVER, S-9, POLYCHLORINATED BIPHENYLS, Method: STANDARD PLATE)?
The mutagenic call was “active; positive”.

What about the mutagenic call [6] of the same molecule?
The mutagenic call was “active; positive”.

With NNC(=O)NC(=O)NN as the molecule, how does the mutagenic call (Test System: E. COLI WP2, Strain/Indicator: WP2, Metabolic Activation: NONE, Method: STANDARD PLATE) read?
The mutagenic call was “active; positive”.
